Reference: PubChem BioAssay AID330 (DTP/NCI, 2004)
Where “and” joins values, the source holds several entries; their conditions need not be identical. Identical values can stand only once. Inconclusive results and toxic doses are left out. Peptide text beside a SMILES is read from it. * marks the point of attachment. Cbz = O=C(OCc1ccccc1)*; OtBu = CC(C)(C)O*

Test system: P388 leukemia ip, CD2F1 mice, survival T/C
Experiment: NCI In Vivo Anticancer Drug Screen. Data for tumor model P388 Leukemia (intraperitoneal) in CD2F1 (CDF1) mice
Details: endpoint: median survival time, higher = longer survival
Procedure, shortened: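 Mice carrying the transplanted tumor received test compound or vehicle. Survival was recorded in each group, and the value is the treated-group measurement divided by that of the vehicle-treated control group.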

[1] = dose: 50.0 mg/kg/injection, schedule: Q01DX009 (ip), vehicle: saline
[2] = dose: 100.0 mg/kg/injection, schedule: Q01DX009 (ip), vehicle: saline
[3] = dose: 200.0 mg/kg/injection, schedule: Q01DX009 (ip), vehicle: saline
[4] = dose: 50.0 mg/kg/injection, schedule: Q01DX005 (ip), vehicle: saline with Tween-80
[5] = dose: 100.0 mg/kg/injection, schedule: Q01DX005 (ip), vehicle: saline with Tween-80
[6] = dose: 200.0 mg/kg/injection, schedule: Q01DX005 (ip), vehicle: saline with Tween-80

Compound: C[C@]12C=CC(=O)C=C1CC[C@@H]1[C@@H]2C(=O)C[C@@]2(C)[C@H]1CC[C@]2(O)C(=O)CO
- T/C (dose: 25.0 mg/kg/injection, schedule: Q01DX009 (ip), vehicle: saline): 106 % of control
- T/C (dose: 30.0 mg/kg/injection, schedule: Q04DX002 (sc), vehicle: Klucel (hydroxypropylcellulose) (HPC)): 100 % of control and 95 % of control
- T/C (dose: 44.0 mg/kg/injection, schedule: Q04DX002 (sc), vehicle: Klucel (hydroxypropylcellulose) (HPC)): 100 % of control
- T/C (dose: 45.0 mg/kg/injection, schedule: Q04DX002 (sc), vehicle: Klucel (hydroxypropylcellulose) (HPC)): 104 % of control
- T/C (dose: 50.0 mg/kg/injection, schedule: Q01DX001 (oral), vehicle: saline): 93 % of control
- T/C (dose: 50.0 mg/kg/injection, schedule: Q01DX005 (sc), vehicle: Klucel (hydroxypropylcellulose) (HPC)): 111 % of control
- T/C [1]: 106 % of control
- T/C (dose: 50.0 mg/kg/injection, schedule: Q01DX009 (oral), vehicle: saline): 100 % of control
- T/C (dose: 67.0 mg/kg/injection, schedule: Q04DX002 (sc), vehicle: Klucel (hydroxypropylcellulose) (HPC)): 100 % of control and 104 % of control
- T/C (dose: 100.0 mg/kg/injection, schedule: Q01DX001 (oral), vehicle: saline): 100 % of control
- T/C (dose: 100.0 mg/kg/injection, schedule: Q01DX005 (sc), vehicle: Klucel (hydroxypropylcellulose) (HPC)): 111 % of control
- T/C [2]: 106 % of control
- T/C (dose: 100.0 mg/kg/injection, schedule: Q01DX009 (oral), vehicle: saline): 114 % of control
- T/C (dose: 100.0 mg/kg/injection, schedule: Q04DX002 (sc), vehicle: Klucel (hydroxypropylcellulose) (HPC)): 98 % of control and 107 % of control
- T/C (dose: 125.0 mg/kg/injection, schedule: Q01DX001 (ip), vehicle: steriod suspending solution): 98 % of control and 95 % of control
- T/C (dose: 133.0 mg/kg/injection, schedule: Q01DX001 (sc), vehicle: Klucel (hydroxypropylcellulose) (HPC)): 100 % of control
- T/C (dose: 200.0 mg/kg/injection, schedule: Q01DX001 (oral), vehicle: saline): 100 % of control
- T/C (dose: 200.0 mg/kg/injection, schedule: Q01DX001 (sc), vehicle: Klucel (hydroxypropylcellulose) (HPC)): 100 % of control
- T/C (dose: 200.0 mg/kg/injection, schedule: Q01DX005 (sc), vehicle: Klucel (hydroxypropylcellulose) (HPC)): 115 % of control
- T/C [3]: 106 % of control
- T/C (dose: 200.0 mg/kg/injection, schedule: Q01DX009 (oral), vehicle: saline): 100 % of control
- T/C (dose: 250.0 mg/kg/injection, schedule: Q01DX001 (ip), vehicle: steriod suspending solution): 91 % of control and 95 % of control
- T/C (dose: 300.0 mg/kg/injection, schedule: Q01DX001 (sc), vehicle: Klucel (hydroxypropylcellulose) (HPC)): 107 % of control
- T/C (dose: 400.0 mg/kg/injection, schedule: Q01DX001 (oral), vehicle: saline): 87 % of control
- T/C (dose: 400.0 mg/kg/injection, schedule: Q01DX005 (sc), vehicle: Klucel (hydroxypropylcellulose) (HPC)): 115 % of control
- T/C (dose: 400.0 mg/kg/injection, schedule: Q01DX009 (ip), vehicle: saline): 106 % of control
- T/C (dose: 400.0 mg/kg/injection, schedule: Q01DX009 (oral), vehicle: saline): 114 % of control
- T/C (dose: 450.0 mg/kg/injection, schedule: Q01DX001 (sc), vehicle: Klucel (hydroxypropylcellulose) (HPC)): 108 % of control
- T/C (dose: 500.0 mg/kg/injection, schedule: Q01DX001 (ip), vehicle: steriod suspending solution): 91 % of control and 94 % of control
- T/C (dose: 800.0 mg/kg/injection, schedule: Q01DX001 (oral), vehicle: saline): 100 % of control
- T/C (dose: 800.0 mg/kg/injection, schedule: Q01DX005 (ip), vehicle: Klucel (hydroxypropylcellulose) (HPC)): 108 % of control
- T/C (dose: 800.0 mg/kg/injection, schedule: Q01DX005 (sc), vehicle: Klucel (hydroxypropylcellulose) (HPC)): 113 % of control
- T/C (dose: 800.0 mg/kg/injection, schedule: Q01DX009 (oral), vehicle: saline): 107 % of control
- T/C (dose: 1000.0 mg/kg/injection, schedule: Q01DX001 (ip), vehicle: steriod suspending solution): 34 % of control
- T/C (dose: 1600.0 mg/kg/injection, schedule: Q01DX005 (ip), vehicle: Klucel (hydroxypropylcellulose) (HPC)): 116 % of control
- T/C (dose: 1600.0 mg/kg/injection, schedule: Q01DX005 (sc), vehicle: Klucel (hydroxypropylcellulose) (HPC)): 100 % of control
- T/C (dose: 6400.0 mg/kg/injection, schedule: Q01DX005 (sc), vehicle: Klucel (hydroxypropylcellulose) (HPC)): 102 % of control

Compound: CC(=N/NC(=S)NCC(C)C)/C(C)=N\Nc1ccc(Cl)cc1
- T/C [1]: 97 % of control
- T/C [2]: 106 % of control
- T/C [3]: 99 % of control

Compound: O=C(O)c1c(Cl)n(Cc2cc(Cl)ccc2Cl)c2ccccc12
- T/C (dose: 60.0 mg/kg/injection, schedule: Q01DX005 (ip), vehicle: Klucel (hydroxypropylcellulose) (HPC)): 95 % of control
- T/C (dose: 120.0 mg/kg/injection, schedule: Q01DX005 (ip), vehicle: Klucel (hydroxypropylcellulose) (HPC)): 88 % of control

Compound: CC(=O)NC(C=O)C(O)C(O)C(O)C(=O)O (stereo not drawn) (tested in a mixture with another compound)
- T/C (dose: 6.25 mg/kg/injection, schedule: Q01DX009 (ip), vehicle: Klucel (hydroxypropylcellulose) (HPC)): 101 % of control
- T/C (dose: 12.5 mg/kg/injection, schedule: Q01DX009 (ip), vehicle: Klucel (hydroxypropylcellulose) (HPC)): 94 % of control
- T/C (dose: 25.0 mg/kg/injection, schedule: Q01DX009 (ip), vehicle: Klucel (hydroxypropylcellulose) (HPC)): 92 % of control

Compound: CCCCC1=C(O)c2ccccc2C(=NC(CO)(CO)CO)C1=O
- T/C [4]: 103 % of control
- T/C [5]: 110 % of control
- T/C [6]: 100 % of control

Compound: CCCCCCCCCCCCCCCc1ccc(OC)cc1
- T/C (dose: 7.5 mg/kg/injection, schedule: Q01DX009 (ip), vehicle: saline with Tween-80): 90 % of control
- T/C (dose: 15.0 mg/kg/injection, schedule: Q01DX009 (ip), vehicle: saline with Tween-80): 94 % of control
- T/C (dose: 30.0 mg/kg/injection, schedule: Q01DX009 (ip), vehicle: saline with Tween-80): 104 % of control

Compound: O=c1ccc2cc3ccoc3c(OCCOCCOCCOCCOc3c4occc4cc4ccc(=O)oc34)c2o1
- T/C [4]: 92 % of control
- T/C [5]: 91 % of control
- T/C [6]: 91 % of control

Compound: OCC1OC(n2cc(I)c3c2ncn2ccnc32)C(O)C1O (stereo not drawn)
- T/C (dose: 1.56 mg/kg/injection, schedule: Q01DX009 (ip), vehicle: water): 98 % of control
- T/C (dose: 3.13 mg/kg/injection, schedule: Q01DX009 (ip), vehicle: water): 102 % of control
- T/C (dose: 6.25 mg/kg/injection, schedule: Q01DX009 (ip), vehicle: water): 100 % of control
- T/C (dose: 12.5 mg/kg/injection, schedule: Q01DX009 (ip), vehicle: water): 102 % of control
- T/C (dose: 25.0 mg/kg/injection, schedule: Q01DX009 (ip), vehicle: water): 106 % of control

Compound: O=NNc1ccc(Oc2ccccc2)cn1
- T/C (dose: 6.25 mg/kg/injection, schedule: Q01DX009 (ip), vehicle: saline): 156 % of control

Compound: CN(C)C(P1(=O)OC(C)(C)C(C)(C)O1)P1(=O)OC(C)(C)C(C)(C)O1
- T/C (dose: 50.0 mg/kg/injection, schedule: Q01DX005 (ip), vehicle: saline): 104 % of control
- T/C (dose: 100.0 mg/kg/injection, schedule: Q01DX005 (ip), vehicle: saline): 99 % of control
- T/C (dose: 200.0 mg/kg/injection, schedule: Q01DX005 (ip), vehicle: saline): 98 % of control

Compound: O=C(Nc1cccc2cccnc12)C1=C(Nc2cccc3cccnc23)CCC1
- T/C (dose: 6.25 mg/kg/injection, schedule: Q01DX009 (ip), vehicle: saline with Tween-80): 107 % of control
- T/C (dose: 12.5 mg/kg/injection, schedule: Q01DX009 (ip), vehicle: saline with Tween-80): 100 % of control
- T/C (dose: 25.0 mg/kg/injection, schedule: Q01DX009 (ip), vehicle: saline with Tween-80): 98 % of control
- T/C (dose: 50.0 mg/kg/injection, schedule: Q01DX009 (ip), vehicle: saline with Tween-80): 92 % of control
- T/C (dose: 200.0 mg/kg/injection, schedule: Q01DX009 (ip), vehicle: saline with Tween-80): 98 % of control

Compound: COC(=S)SCN(CSC(=S)OC)c1ccccc1Cl
- T/C (dose: 100.0 mg/kg/injection, schedule: Q04DX003 (ip), vehicle: saline): 100 % of control
- T/C (dose: 200.0 mg/kg/injection, schedule: Q04DX003 (ip), vehicle: saline): 100 % of control
- T/C (dose: 400.0 mg/kg/injection, schedule: Q04DX003 (ip), vehicle: saline): 118 % of control

Compound: CC(C)(C)OC(=O)CCC(NC(=O)C(CCC(=O)OC(C)(C)C)NC(=O)C(CCC(=O)OC(C)(C)C)NC(=O)OCc1ccccc1)C(=O)O (stereo not drawn) (Cbz-Glu(OtBu)-Glu(OtBu)-Glu(OtBu)-OH; configuration not given here)
- T/C [4]: 104 % of control
- T/C [5]: 100 % of control
- T/C [6]: 96 % of control

Compound: O.O.O=C(O)C(=O)O.O=C(O)C(=O)O.[Rh]
- T/C (dose: 25.0 mg/kg/injection, schedule: Q04DX003 (ip), vehicle: water): 94 % of control
- T/C (dose: 50.0 mg/kg/injection, schedule: Q04DX003 (ip), vehicle: water): 95 % of control
- T/C (dose: 100.0 mg/kg/injection, schedule: Q04DX003 (ip), vehicle: water): 100 % of control
- T/C (dose: 200.0 mg/kg/injection, schedule: Q04DX003 (ip), vehicle: water): 100 % of control
